Data reported in patent publication EP1044000B1, “COMBINATION THERAPY FOR THE TREATMENT OF AIDS” (MERCK & CO., INC., priority 1997, dated 1999).
Where two headings read alike, the source gives them in different places.

Columns and labels:
[1] = Pharmacokinetic study of Compound A alone and in combination with Indinavir in healthy human males (Example 11); format: in vivo; conditions: for Cmax / Tmax / AUC / concentration at 8 h / concentration at 12 h / concentration at 24 h: male, human, plasma, po, fasted; for Cmax / Tmax: arithmetic mean; for AUC: arithmetic mean (CV %); for concentration at 8 h: plasma 8 hours after dosing, read-out: C8 hrs; for concentration at 12 h: plasma 12 hours after dosing, read-out: C12 rs; for concentration at 24 h: plasma 24 hours after dosing, read-out: C24 hrs
Experimental: A double-blind, single-rising dose, alternating two-panel, four-period, placebo-controlled study was conducted for Compound A alone and in combination with Indinavir in healthy adult males in the fasted state. […] All of the doses of Compound A were administered as the sulfate salt form of Compound A. All of the Compound A doses were oral suspensions of the sulfate salt form in sterile water, except that the 600-mg doses administered to Panel B in the fourth period were tablets. Indinavir was administered in the form of CRIXIVAN® capsules. The safety of the subjects was monitored prior and subsequent to dosing by clinical adverse event reporting, measurement of vital signs, physical examinations, blood and urine laboratory safety tests, and ECGs. Plasma concentrations of Compound A were determined predose and at 0.5, 1, 1.5, 2, 3, 4, 6, 8, 12, 16, 20, 24, 30, 36 and 48 hours following each single dose in each period, using a reverse-phase HPLC column switching method with fluorescence detection.

[2] = biological target: CYPIIIA4 (Homo sapiens, UniProt P08684); test: in vitro inhibition of CYPIIIA4; format: in vitro ADME
Sequence of CYPIIIA4 (P08684 whole entry): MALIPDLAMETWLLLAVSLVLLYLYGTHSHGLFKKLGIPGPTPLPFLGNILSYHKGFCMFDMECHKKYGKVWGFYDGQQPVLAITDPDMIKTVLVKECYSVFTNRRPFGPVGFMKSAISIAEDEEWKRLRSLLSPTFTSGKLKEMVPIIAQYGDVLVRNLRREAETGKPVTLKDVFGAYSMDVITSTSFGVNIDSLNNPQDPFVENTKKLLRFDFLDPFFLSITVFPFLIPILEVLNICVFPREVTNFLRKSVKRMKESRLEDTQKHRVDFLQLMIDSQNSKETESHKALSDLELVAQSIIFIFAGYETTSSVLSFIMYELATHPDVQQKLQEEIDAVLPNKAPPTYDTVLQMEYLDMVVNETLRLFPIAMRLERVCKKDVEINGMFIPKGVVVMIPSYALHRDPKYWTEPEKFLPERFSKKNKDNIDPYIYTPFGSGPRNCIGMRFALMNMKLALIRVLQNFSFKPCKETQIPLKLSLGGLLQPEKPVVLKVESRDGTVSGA

[3] = Pharmacokinetic study of Compound A in healthy human males (Example 10); format: in vivo; conditions: male, plasma, po, suspension of sulfate salt; for Tmax: mean of 6 subjects; for Cmax / AUC: mean of 6 subjects (CV %); for concentration at 8 h: plasma 8 hours after dosing, read-out: C8 hrs; for concentration at 12 h: plasma 12 hours after dosing, read-out: C12 hrs
Experimental: A double-blind, single-rising dose, alternating two-panel, four-period, placebo-controlled study was conducted for Compound A in healthy adult males in the fasted state. Single doses of 20, 50, 100, 200, 400, 800 and 1200 mg of Compound A, or placebo, were administered as an oral suspension of the sulfate salt form of Compound A in sterile water. Each subject received increasing single oral doses of Compound A or placebo during each of the four treatment periods in alternate panels. Panel A dosage levels were 20, 100, 400 mg, and 400 mg with food. Panel B dosage levels were 50, 200, 800 and 1200 mg. For each period, 6 subjects received Compound A and 2 subjects received placebo as allocated by a randomized schedule. In Panel A, subjects who received 400 mg of Compound A also received 400 mg of Compound A with food. The safety of the subjects was monitored prior and subsequent to dosing by clinical adverse event reporting, measurement of vital signs, physical examinations, blood and urine laboratory safety tests, and ECGs. […]

[4] = 200 mg of Compound A with 800 mg of Indinavir relative to 200 mg of Compound A alone (Table 3 vs Table 2)
[5] = 200 mg Compound A + 800 mg IDV (Indinavir) co-administered, single oral dose, n=6
[6] = 200 mg Compound A + 1200 mg IDV (Indinavir) co-administered, single oral dose, n=6
[7] = 400 mg Compound A + 800 mg IDV (Indinavir) co-administered, single oral dose, n=6
[8] = 600 mg Compound A + 800 mg IDV (Indinavir) co-administered, single oral dose, n=8
[9] = 600 mg, 600 mg (tablets) single oral dose, sulfate salt, n=8
[10] = 600 mg, 600 mg single oral dose, suspension of sulfate salt, n=8
[11] = 1600 mg, 1600 mg single oral dose, suspension of sulfate salt, n=6
[12] = 2000 mg, 2000 mg single oral dose, suspension of sulfate salt, n=8
[13] = 50 mg, 50 mg single oral dose, fasted
[14] = 100 mg, 100 mg single oral dose, fasted
[15] = 200 mg, 200 mg single oral dose, fasted
[16] = 400 mg, 400 mg single oral dose, fasted
[17] = 400 mg, 400 mg single oral dose, fasted, CV not determinable
[18] = 400 mg, 400 mg w/food, single oral dose
[19] = 800 mg, 800 mg single oral dose, fasted
[20] = 800 mg, 800 mg single oral dose, fasted, mean (CV %)
[21] = 1200 mg, 1200 mg single oral dose, fasted
[22] = 1200 mg, 1200 mg single oral dose, fasted, mean (CV %)

## CC(C)(C)NC(=O)[C@@H]1CN(Cc2cc3ccccc3o2)CCN1C[C@@H](O)C[C@@H](Cc1ccccc1)C(=O)N[C@H]1c2ccccc2C[C@H]1O [Compound A, N-(2(R)-hydroxy-1(S)-indanyl)-2(R)-phenylmethyl-4-(S)-hydroxy-5-(1-(4-(2-benzo[b]furanylmethyl)-2(S)-N'-(t-butylcarboxamido)-piperazinyl))-pentaneamide]
[1]; [4]
  AUC of Compound A higher for co-administration with Indinavir relative to Compound A alone: about 30 x
  C8 hrs higher for co-administration with Indinavir relative to Compound A alone: ~46 x
  Cmax higher for co-administration with Indinavir relative to Compound A alone: about 19 x
[1]; 600 mg of Compound A in combination with 800 mg of Indinavir versus Compound A alone
  AUC higher than for administration of Compound A alone: about 18 fold
[1]; [5]
  Cmax: 1580 nM
  Tmax: 2.2 h
  AUC: 7.45 µM·h
  concentration at 8 h: 232 nM
  concentration at 12 h: 70 nM
  concentration at 24 h: 8 nM
[1]; [6]
  Cmax: 1560 nM
  Tmax: 2.3 h
  AUC: 9.22 µM·h
  concentration at 8 h: 416 nM
  concentration at 12 h: 107 nM
  concentration at 24 h: 10 nM
[1]; [7]
  Cmax: 2350 nM
  Tmax: 2.5 h
  AUC: 12.2 µM·h
  concentration at 8 h: 399 nM
  concentration at 12 h: 124 nM
  concentration at 24 h: 20 nM
[1]; [8]
  Cmax: 3880 nM
  Tmax: 3.3 h
  AUC: 25.2 µM·h
  concentration at 8 h: 1190 nM
  concentration at 12 h: 352 nM
  concentration at 24 h: 65 nM
[1]; [9]
  Cmax: 211 nM
  Tmax: 1.5 h
  AUC: 1.42 µM·h
  concentration at 8 h: 50 nM
  concentration at 12 h: 38 nM
  concentration at 24 h: 17 nM
[1]; [10]
  Cmax: 208 nM
  Tmax: 1.4 h
  AUC: 1.41 µM·h
  concentration at 8 h: 55 nM
  concentration at 12 h: 39 nM
  concentration at 24 h: 13 nM
[1]; [11]
  Cmax: 613 nM
  Tmax: 2 h
  AUC: 4.72 µM·h
  concentration at 8 h: 163 nM
  concentration at 12 h: 93 nM
  concentration at 24 h: 46 nM
[1]; [12]
  Cmax: 1270 nM
  Tmax: 2.5 h
  AUC: 10.4 µM·h
  concentration at 8 h: 444 nM
  concentration at 12 h: 250 nM
  concentration at 24 h: 105 nM
[2]
  IC50: 30 µM
[3]; [13]
  Tmax: 0.6 h
  Cmax: 12 nM
[3]; [14]
  Tmax: 0.5 h
  Cmax: 36 nM
[3]; [15]
  Tmax: 0.7 h
  AUC: 0.24 µM·h
  Cmax: 85 nM
[3]; 200 mg, 200 mg single oral dose, fasted, CV not determinable
  concentration at 8 h: 5 nM
[3]; [16]
  Tmax: 1.8 h
  AUC: 0.66 µM·h
  Cmax: 166 nM
[3]; [17]
  concentration at 8 h: 15 nM
  concentration at 12 h: 6 nM
[3]; [18]
  Tmax: 4 h
  AUC: 0.8 µM·h
  Cmax: 170 nM
[3]; 400 mg, 400 mg w/food, single oral dose, mean (CV %)
  concentration at 8 h: 32 nM
[3]; 400 mg, 400 mg w/food, single oral dose, CV not determinable
  concentration at 12 h: 7 nM
[3]; [19]
  Tmax: 2.6 h
  AUC: 3.09 µM·h
  Cmax: 568 nM
[3]; [20]
  concentration at 8 h: 126 nM
  concentration at 12 h: 45 nM
[3]; [21]
  Tmax: 2.1 h
  AUC: 7.28 µM·h
  Cmax: 1350 nM
[3]; [22]
  concentration at 8 h: 338 nM
  concentration at 12 h: 128 nM
